According to the NIST ThermoML archive (doi:10.1016/j.jct.2005.04.018):
± gives the expanded uncertainty stated by the source.

Conditions: Liquid, Vibrating tube method

CCCCCC[n+]1ccn(C)c1.O=S(=O)([N-]S(=O)(=O)C(F)(F)F)C(F)(F)F
Conditions | mass density [kg/m3]
298.15 K, 100 kPa | 1370.81 ± 0.9
298.15 K, 1830 kPa | 1372.13 ± 0.9
298.15 K, 10020 kPa | 1378.18 ± 0.94
298.15 K, 14980 kPa | 1381.7 ± 0.96
298.15 K, 19750 kPa | 1384.98 ± 0.99
298.15 K, 25860 kPa | 1389.1 ± 1
298.15 K, 31480 kPa | 1392.73 ± 1.1
298.15 K, 37770 kPa | 1396.74 ± 1.1
298.15 K, 44170 kPa | 1400.64 ± 1.2
298.15 K, 50750 kPa | 1404.48 ± 1.3
298.15 K, 59590 kPa | 1409.53 ± 1.4
299.15 K, 100 kPa | 1369.96 ± 0.9
299.15 K, 1830 kPa | 1371.27 ± 0.9
299.15 K, 10020 kPa | 1377.3 ± 0.94
299.15 K, 14980 kPa | 1380.81 ± 0.96
299.15 K, 19750 kPa | 1384.12 ± 0.99
299.15 K, 25860 kPa | 1388.22 ± 1
299.15 K, 31480 kPa | 1391.88 ± 1.1
299.15 K, 37770 kPa | 1395.86 ± 1.1
299.15 K, 44170 kPa | 1399.77 ± 1.2
299.15 K, 50750 kPa | 1403.7 ± 1.3
299.15 K, 59590 kPa | 1408.77 ± 1.4
300.15 K, 100 kPa | 1368.97 ± 0.9
300.15 K, 1830 kPa | 1370.29 ± 0.9
300.15 K, 10020 kPa | 1376.36 ± 0.94
300.15 K, 14980 kPa | 1379.86 ± 0.96
300.15 K, 19750 kPa | 1383.21 ± 0.99
300.15 K, 25860 kPa | 1387.32 ± 1
300.15 K, 31480 kPa | 1391 ± 1.1
300.15 K, 37770 kPa | 1395.01 ± 1.1
300.15 K, 44170 kPa | 1398.88 ± 1.2
300.15 K, 50750 kPa | 1402.84 ± 1.3
300.15 K, 59590 kPa | 1407.93 ± 1.4
301.15 K, 100 kPa | 1368.11 ± 0.9
301.15 K, 1830 kPa | 1369.42 ± 0.9
301.15 K, 10020 kPa | 1375.49 ± 0.93
301.15 K, 14980 kPa | 1379.01 ± 0.96
301.15 K, 19750 kPa | 1382.28 ± 0.99
301.15 K, 25860 kPa | 1386.44 ± 1
301.15 K, 31480 kPa | 1390.11 ± 1.1
301.15 K, 37770 kPa | 1394.07 ± 1.1
301.15 K, 44170 kPa | 1398.06 ± 1.2
301.15 K, 50750 kPa | 1401.99 ± 1.3
301.15 K, 59590 kPa | 1407.14 ± 1.4
302.15 K, 100 kPa | 1367.15 ± 0.9
302.15 K, 1830 kPa | 1368.47 ± 0.9
302.15 K, 10020 kPa | 1374.56 ± 0.93
302.15 K, 14980 kPa | 1378.1 ± 0.96
302.15 K, 19750 kPa | 1381.43 ± 0.99
302.15 K, 25860 kPa | 1385.56 ± 1
302.15 K, 31480 kPa | 1389.24 ± 1.1
302.15 K, 37770 kPa | 1393.28 ± 1.1
302.15 K, 44170 kPa | 1397.22 ± 1.2
302.15 K, 50750 kPa | 1401.19 ± 1.3
302.15 K, 59590 kPa | 1406.37 ± 1.4
303.15 K, 100 kPa | 1366.24 ± 0.9
303.15 K, 1830 kPa | 1367.56 ± 0.9
303.15 K, 10020 kPa | 1373.64 ± 0.93
303.15 K, 14980 kPa | 1377.17 ± 0.96
303.15 K, 19750 kPa | 1380.47 ± 0.99
303.15 K, 25860 kPa | 1384.59 ± 1
303.15 K, 31480 kPa | 1388.3 ± 1.1
303.15 K, 44170 kPa | 1396.31 ± 1.2
303.15 K, 50750 kPa | 1400.29 ± 1.3
303.15 K, 59590 kPa | 1405.51 ± 1.4
308.15 K, 100 kPa | 1361.65 ± 0.89
308.15 K, 1830 kPa | 1362.96 ± 0.9
308.15 K, 10020 kPa | 1369.05 ± 0.93
308.15 K, 14980 kPa | 1372.62 ± 0.95
308.15 K, 19750 kPa | 1375.95 ± 0.98
308.15 K, 25860 kPa | 1380.12 ± 1
308.15 K, 31480 kPa | 1383.86 ± 1.1
308.15 K, 37770 kPa | 1387.93 ± 1.1
308.15 K, 44170 kPa | 1391.98 ± 1.2
308.15 K, 50750 kPa | 1396.05 ± 1.3
308.15 K, 59590 kPa | 1401.4 ± 1.4
313.15 K, 100 kPa | 1357.01 ± 0.89
313.15 K, 1830 kPa | 1358.32 ± 0.89
313.15 K, 10020 kPa | 1364.45 ± 0.93
313.15 K, 14980 kPa | 1368.01 ± 0.95
313.15 K, 19750 kPa | 1371.36 ± 0.98
313.15 K, 25860 kPa | 1375.57 ± 1
313.15 K, 31480 kPa | 1379.34 ± 1.1
313.15 K, 37770 kPa | 1383.47 ± 1.1
313.15 K, 44170 kPa | 1387.6 ± 1.2
313.15 K, 50750 kPa | 1391.76 ± 1.2
313.15 K, 59590 kPa | 1397.25 ± 1.4
318.15 K, 100 kPa | 1352.32 ± 0.89
318.15 K, 1830 kPa | 1353.62 ± 0.89
318.15 K, 10020 kPa | 1359.84 ± 0.92
318.15 K, 14980 kPa | 1363.45 ± 0.95
318.15 K, 25860 kPa | 1371.1 ± 1
318.15 K, 31480 kPa | 1374.91 ± 1.1
318.15 K, 37770 kPa | 1379.09 ± 1.1
318.15 K, 44170 kPa | 1383.28 ± 1.2
318.15 K, 50750 kPa | 1387.51 ± 1.2
323.15 K, 100 kPa | 1348.05 ± 0.88
323.15 K, 1830 kPa | 1349.36 ± 0.89
323.15 K, 10020 kPa | 1355.55 ± 0.92
323.15 K, 14980 kPa | 1359.13 ± 0.94
323.15 K, 19750 kPa | 1362.5 ± 1
323.15 K, 25860 kPa | 1366.73 ± 1
323.15 K, 31480 kPa | 1370.56 ± 1.1
323.15 K, 37770 kPa | 1374.72 ± 1.1
323.15 K, 44170 kPa | 1378.88 ± 1.2
323.15 K, 50750 kPa | 1383.17 ± 1.2
325.15 K, 100 kPa | 1346.34 ± 0.88
325.15 K, 1830 kPa | 1347.7 ± 0.89
325.15 K, 10020 kPa | 1354.03 ± 0.92
325.15 K, 14980 kPa | 1357.71 ± 0.94
325.15 K, 19750 kPa | 1361.18 ± 0.97
325.15 K, 25860 kPa | 1365.48 ± 1
325.15 K, 31480 kPa | 1369.35 ± 1.1
325.15 K, 37770 kPa | 1373.57 ± 1.1
325.15 K, 44170 kPa | 1377.76 ± 1.2
325.15 K, 50750 kPa | 1382.02 ± 1.2
327.15 K, 100 kPa | 1344.39 ± 0.88
327.15 K, 1830 kPa | 1345.74 ± 0.89
327.15 K, 10020 kPa | 1352.05 ± 0.92
327.15 K, 14980 kPa | 1355.75 ± 0.94
327.15 K, 19750 kPa | 1359.21 ± 0.97
327.15 K, 25860 kPa | 1363.58 ± 1
327.15 K, 31480 kPa | 1367.53 ± 1.1
327.15 K, 37770 kPa | 1371.82 ± 1.1
327.15 K, 44170 kPa | 1376.09 ± 1.2
327.15 K, 50750 kPa | 1380.39 ± 1.2
329.15 K, 100 kPa | 1342.33 ± 0.88
329.15 K, 1830 kPa | 1343.71 ± 0.88
329.15 K, 10020 kPa | 1350.14 ± 0.91
329.15 K, 14980 kPa | 1353.87 ± 0.94
329.15 K, 19750 kPa | 1357.38 ± 0.96
329.15 K, 25860 kPa | 1361.77 ± 1
329.15 K, 31480 kPa | 1365.68 ± 1.1
329.15 K, 37770 kPa | 1369.99 ± 1.1
329.15 K, 44170 kPa | 1374.26 ± 1.2
329.15 K, 50750 kPa | 1378.59 ± 1.2
331.15 K, 100 kPa | 1340.37 ± 0.88
331.15 K, 1830 kPa | 1341.75 ± 0.88
331.15 K, 10020 kPa | 1348.2 ± 0.9
331.15 K, 14980 kPa | 1351.91 ± 0.94
331.15 K, 19750 kPa | 1355.44 ± 0.96
331.15 K, 25860 kPa | 1359.84 ± 1
331.15 K, 31480 kPa | 1363.79 ± 1.1
331.15 K, 37770 kPa | 1368.1 ± 1.1
331.15 K, 44170 kPa | 1372.39 ± 1.2
331.15 K, 50750 kPa | 1376.72 ± 1.2
333.15 K, 100 kPa | 1338.24 ± 0.88
333.15 K, 1830 kPa | 1339.65 ± 0.88
333.15 K, 10020 kPa | 1346.2 ± 0.91
333.15 K, 14980 kPa | 1349.99 ± 0.93
333.15 K, 19750 kPa | 1353.57 ± 0.96
333.15 K, 25860 kPa | 1358.01 ± 1
333.15 K, 31480 kPa | 1361.98 ± 1
333.15 K, 37770 kPa | 1366.34 ± 1.1
333.15 K, 44170 kPa | 1370.63 ± 1.2
333.15 K, 50750 kPa | 1374.95 ± 1.2
